Assay results published in PubChem BioAssay AID248 (DTP/NCI, 2004).
Where “and” joins values, the source holds several entries; their conditions need not be identical. Equal entries are not always repeated. Toxic doses and inconclusive results are not listed. Cut-off read from the data, not from the text of the source: active = T/C of 150% or more; inactive = T/C below 125%.

Tested on: L1210 leukemia ip in BDF1 mice, survival T/C
Assay: NCI In Vivo Anticancer Drug Screen. Data for tumor model L1210 Leukemia (intraperitoneal) in B6D2F1 (BDF1) mice
Conditions: endpoint: mean survival time, higher = longer survival
Outline: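 Tumor was transplanted into mice, which were then dosed with test compound or vehicle alone. Survival was recorded for each group, and the treated figure was expressed relative to the control figure.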

[1] = dose: 100.0 mg/kg/injection, schedule: Q01DX009 (ip), vehicle: saline
[2] = dose: 100.0 mg/kg/injection, schedule: Q04DX003 (ip), vehicle: saline with Tween-80
[3] = dose: 200.0 mg/kg/injection, schedule: Q01DX009 (ip), vehicle: saline
[4] = dose: 200.0 mg/kg/injection, schedule: Q04DX003 (ip), vehicle: saline with Tween-80
[5] = dose: 400.0 mg/kg/injection, schedule: Q04DX003 (ip), vehicle: saline with Tween-80
[6] = dose: 100.0 mg/kg/injection, schedule: Q01DX001 (ip), vehicle: carboxymethylcellulose (CMC)
[7] = dose: 400.0 mg/kg/injection, schedule: Q01DX001 (ip), vehicle: carboxymethylcellulose (CMC)
[8] = dose: 25.0 mg/kg/injection, schedule: Q01DX009 (ip), vehicle: Klucel (hydroxypropylcellulose) (HPC)
[9] = dose: 50.0 mg/kg/injection, schedule: Q01DX009 (ip), vehicle: Klucel (hydroxypropylcellulose) (HPC)
[10] = dose: 100.0 mg/kg/injection, schedule: Q01DX009 (ip), vehicle: Klucel (hydroxypropylcellulose) (HPC)
[11] = dose: 200.0 mg/kg/injection, schedule: Q01DX009 (ip), vehicle: Klucel (hydroxypropylcellulose) (HPC)
[12] = dose: 400.0 mg/kg/injection, schedule: Q01DX009 (ip), vehicle: Klucel (hydroxypropylcellulose) (HPC)
[13] = dose: 100.0 mg/kg/injection, schedule: Q01DX001 (ip), vehicle: saline
[14] = dose: 100.0 mg/kg/injection, schedule: Q04DX002 (ip), vehicle: saline
[15] = dose: 200.0 mg/kg/injection, schedule: Q01DX001 (ip), vehicle: saline
[16] = dose: 200.0 mg/kg/injection, schedule: Q04DX002 (ip), vehicle: saline
[17] = dose: 400.0 mg/kg/injection, schedule: Q01DX001 (ip), vehicle: saline
[18] = dose: 400.0 mg/kg/injection, schedule: Q04DX002 (ip), vehicle: saline
[19] = dose: 100.0 mg/kg/injection, schedule: Q04DX002 (ip), vehicle: Klucel (hydroxypropylcellulose) (HPC)
[20] = dose: 200.0 mg/kg/injection, schedule: Q04DX002 (ip), vehicle: Klucel (hydroxypropylcellulose) (HPC)
[21] = dose: 100.0 mg/kg/injection, schedule: Q01DX001 (ip), vehicle: Klucel (hydroxypropylcellulose) (HPC)
[22] = dose: 200.0 mg/kg/injection, schedule: Q01DX001 (ip), vehicle: Klucel (hydroxypropylcellulose) (HPC)
[23] = dose: 400.0 mg/kg/injection, schedule: Q01DX001 (ip), vehicle: Klucel (hydroxypropylcellulose) (HPC)
[24] = dose: 100.0 mg/kg/injection, schedule: Q04DX003 (ip), vehicle: Klucel (hydroxypropylcellulose) (HPC)
[25] = dose: 200.0 mg/kg/injection, schedule: Q04DX003 (ip), vehicle: Klucel (hydroxypropylcellulose) (HPC)
[26] = dose: 400.0 mg/kg/injection, schedule: Q04DX002 (ip), vehicle: Klucel (hydroxypropylcellulose) (HPC)

Measured: T/C

N#Cc1cccnc1
inactive: dose: 50.0 mg/kg/injection, schedule: Q01DX009 (ip), vehicle: saline 97 % of control | [1] 110 % of control | [2] 90 % of control | [3] 108 % of control | [4] 102 % of control | [5] 104 % of control

Cc1ccc2ccc(/C=N/Nc3ccc4cccc(O)c4n3)c(O)c2n1
inactive: [6] 88 % of control | [7] 88 % of control

COc1cc(/C=N\NC(=O)c2cccc(Cl)c2)ccc1N(CCCl)CCCl
inactive: dose: 50.0 mg/kg/injection, schedule: Q01DX001 (ip), vehicle: carboxymethylcellulose (CMC) 100 % of control | [6] 103 % of control | dose: 200.0 mg/kg/injection, schedule: Q01DX001 (ip), vehicle: carboxymethylcellulose (CMC) 105 % of control | [7] 103 % of control

NC1(C(=O)NCC(=O)O)C2CC3CC(C2)CC1C3 (stereo unspecified)
inactive: [8] 94 % of control | [9] 100 % of control | [10] 97 % of control and 99 % of control | [11] 103 % of control | [12] 102 % of control

O=Cc1cc(O)c(O)c(Br)c1
inactive: dose: 75.0 mg/kg/injection, schedule: Q04DX003 (ip), vehicle: saline 100 % of control | dose: 150.0 mg/kg/injection, schedule: Q04DX003 (ip), vehicle: saline 87 % of control | dose: 300.0 mg/kg/injection, schedule: Q04DX003 (ip), vehicle: saline 98 % of control

Cc1cc2c([N+](=O)[O-])c3ccc(Cl)nn3c2n[n+]1[O-]
inactive: dose: 62.5 mg/kg/injection, schedule: Q04DX002 (ip), vehicle: Klucel (hydroxypropylcellulose) (HPC) 106 % of control | dose: 125.0 mg/kg/injection, schedule: Q04DX002 (ip), vehicle: Klucel (hydroxypropylcellulose) (HPC) 114 % of control | dose: 250.0 mg/kg/injection, schedule: Q04DX002 (ip), vehicle: Klucel (hydroxypropylcellulose) (HPC) 95 % of control

CN(C)C(=S)Oc1ccc([N+](=O)[O-])cc1Cl
inactive: [10] 103 % of control | [11] 95 % of control | [12] 100 % of control

N#CCc1[nH]cnc1C#N
inactive: dose: 100.0 mg/kg/injection, schedule: Q04DX003 (ip), vehicle: water 100 % of control and 111 % of control and 115 % of control | dose: 200.0 mg/kg/injection, schedule: Q04DX003 (ip), vehicle: water 95 % of control and 115 % of control | dose: 300.0 mg/kg/injection, schedule: Q04DX003 (ip), vehicle: water 113 % of control | dose: 400.0 mg/kg/injection, schedule: Q04DX003 (ip), vehicle: water 100 % of control (2×) and 122 % of control

Nc1nc(N)c2nc(NCc3ccc(C(=O)NC(CCC(=O)O)C(=O)O)cc3)cnc2n1 (stereo unspecified)
inactive: [13] 100 % of control | [1] 117 % of control | [14] 103 % of control and 105 % of control | [15] 105 % of control | [3] 117 % of control | [16] 103 % of control and 107 % of control | [17] 96 % of control | [18] 107 % of control and 113 % of control

COC1OC2COC(c3ccccc3)OC2C(OC)C1O (stereo unspecified)
inactive: dose: 12.5 mg/kg/injection, schedule: Q04DX002 (ip), vehicle: Klucel (hydroxypropylcellulose) (HPC) 103 % of control | dose: 25.0 mg/kg/injection, schedule: Q04DX002 (ip), vehicle: Klucel (hydroxypropylcellulose) (HPC) 100 % of control | dose: 50.0 mg/kg/injection, schedule: Q04DX002 (ip), vehicle: Klucel (hydroxypropylcellulose) (HPC) 100 % of control

COC(=O)c1ccc(Cn2ccc(=O)n(Cc3ccc(C(=O)OC)cc3)c2=O)cc1
inactive: [2] 91 % of control | [4] 88 % of control | [5] 90 % of control

O=C(Nc1ccc(Cl)c(Cl)c1)OCn1ncc2ccc([N+](=O)[O-])cc21
inactive: [15] 96 % of control | [17] 100 % of control

O=C(N/N=C/C1CCCCC1)C(=O)N/N=C/C1CCCCC1
inactive: dose: 12.5 mg/kg/injection, schedule: Q01DX009 (ip), vehicle: Klucel (hydroxypropylcellulose) (HPC) 90 % of control | [8] 96 % of control and 89 % of control | [11] 89 % of control

CS(=O)(=O)c1nc2ccccc2[nH]1
inactive: [19] 105 % of control | [20] 97 % of control

O=[N+]([O-])c1ccc(Cc2ccccn2)cc1
inactive: [21] 104 % of control | [10] 95 % of control | [22] 108 % of control | [11] 101 % of control | [23] 112 % of control

Nc1nc2nc(-c3ccc([N+](=O)[O-])cc3)nc(N)c2nc1-c1ccc(N(CCO)CCO)cc1
inactive: [13] 90 % of control | [15] 95 % of control | [17] 95 % of control

COC(=O)NS(=O)(=O)c1ccco1
inactive: [21] 92 % of control | [24] 100 % of control | [22] 98 % of control | [25] 106 % of control | [23] 101 % of control | dose: 400.0 mg/kg/injection, schedule: Q04DX003 (ip), vehicle: Klucel (hydroxypropylcellulose) (HPC) 89 % of control

COc1ccc(NC(=O)N(C)Cc2ccccc2Cl)cc1
inactive: [19] 96 % of control | [20] 110 % of control | [26] 104 % of control

CC(C)=CCC/C(C)=C\C1N(C)CCCN1C
inactive: dose: 25.0 mg/kg/injection, schedule: Q01DX009 (ip), vehicle: saline with Tween-80 92 % of control | dose: 25.0 mg/kg/injection, schedule: Q04DX003 (ip), vehicle: saline with Tween-80 98 % of control | dose: 50.0 mg/kg/injection, schedule: Q01DX009 (ip), vehicle: saline with Tween-80 88 % of control | dose: 50.0 mg/kg/injection, schedule: Q04DX003 (ip), vehicle: saline with Tween-80 92 % of control

OC(CC(O)(C(F)(F)F)C(F)(F)F)c1cccc(C(F)(F)F)c1 (stereo unspecified)
inactive: dose: 100.0 mg/kg/injection, schedule: Q01DX009 (ip), vehicle: other 96 % of control | dose: 100.0 mg/kg/injection, schedule: Q04DX003 (ip), vehicle: other 101 % of control | dose: 200.0 mg/kg/injection, schedule: Q01DX009 (ip), vehicle: other 96 % of control | dose: 400.0 mg/kg/injection, schedule: Q01DX009 (ip), vehicle: other 96 % of control | dose: 400.0 mg/kg/injection, schedule: Q04DX003 (ip), vehicle: other 92 % of control

S=c1nc[nH]c2c1ncn2Cc1ccc(Cl)c(Cl)c1
inactive: [20] 94 % of control | [26] 108 % of control

O=C(COc1cc(Cl)c(Cl)cc1Cl)NO
inactive: [9] 98 % of control | [10] 104 % of control | [24] 101 % of control | [11] 112 % of control | [25] 101 % of control

Cc1cccc(C)c1N=C/C=C/c1ccccc1
inactive: [10] 100 % of control | [11] 88 % of control | [12] 102 % of control

CCCCCCCC(=O)N1CCCC(C)C1 (stereo unspecified)
inactive: [14] 96 % of control | [16] 114 % of control | [18] 114 % of control

CN(N=O)C(=O)NC1CC2CCC1C2 (stereo unspecified)
inactive: dose: 4.0 mg/kg/injection, schedule: Q01DX001 (ip), vehicle: other 104 % of control | dose: 8.0 mg/kg/injection, schedule: Q01DX001 (ip), vehicle: other 104 % of control | dose: 16.0 mg/kg/injection, schedule: Q01DX001 (ip), vehicle: other 108 % of control | dose: 31.0 mg/kg/injection, schedule: Q01DX001 (ip), vehicle: other 104 % of control | dose: 62.0 mg/kg/injection, schedule: Q01DX001 (ip), vehicle: other 100 % of control | dose: 125.0 mg/kg/injection, schedule: Q01DX001 (ip), vehicle: other 104 % of control | dose: 250.0 mg/kg/injection, schedule: Q01DX001 (ip), vehicle: other 112 % of control | dose: 375.0 mg/kg/injection, schedule: Q01DX001 (ip), vehicle: other 112 % of control | dose: 500.0 mg/kg/injection, schedule: Q01DX001 (ip), vehicle: other 118 % of control

CN/N=C1\CCC2C3CCc4cc(O)ccc4C3CCC12C (stereo unspecified)
inactive: [10] 95 % of control | [11] 89 % of control
